{"source": "patent US20190117586A1", "about": "“METHODS OF PREVENTING OR TREATING PARKINSON'S DISEASE BY THE FARNESYLATION OF PARIS” (The Johns Hopkins University, priority 2016, published 2019)", "key": {"α-syn PFF-injected mice": {"system": "α-syn PFF-injected mice", "test": "α-syn PFF-injected mice (WT and C638S KI)", "format": "in vivo", "conditions": "farnesol diet from 2 weeks post-injection; WT versus C638S KI", "description": "Specifically, FIG. 16A illustrates generating Zfp746^C638S/C638S knockin mice (C638S KI) by CRISPR/Cas9. […] WB, western blot analysis. (FIG. 16B). […] (FIG. 16C). […] Stereological TH, Nissl-positive neuronal counting was indicated at the bottom, n=4 mice per group. (FIG. 16 D). […] WT, n=8, 9, 10, and 9 mice for each group; C638S KI, n=8, 10, 9, and 9 mice for each group. (FIG. 16 D). […] WT, n=8, 9, 10, and 9 mice for each group; C638S KI, n=9, 10, 9, and 9 mice for each group. (FIG. 16F). […] Data=mean±SEM. (FIG. 16G).\nStatistical significance was determined by two-way ANOVA test with Tukey post-hoc analysis. Differences were considered significant when p<0.05. *p<0.05, **p<0.01, and ***p<0.001."}, "cPK-KO mice": {"system": "cPK-KO mice", "test": "Conditional adult parkin knockout (cPK-KO) mice", "format": "in vivo", "description": "In this setting, the level of farnesylated PARIS was monitored in the SN of cPK-KO mice fed with either chow diet or farnesol diet.\nTo generate Cre-flox conditional model of parkin knock out, an adeno-associated vector expressing GFP fused Cre recombinase (AAV-GFPCre) was stereotaxically introduced into the SN of exon 7 floxed parkin mice (parkin^Flox/Flox)."}, "[1]": {"test": "Farnesol concentration in brain and plasma of farnesol diet fed mice by mass spectrometry", "format": "in vivo", "conditions": "0.5% w/w trans-farnesol in AIN-76A diet; for concentration at 7 days: mouse, oral, 0.5 % w/w in diet"}, "PPARγ": {"biological_target": "T1, PPARγ (Homo sapiens, UniProt P37231)", "T1 sequence (P37231 1-505)": "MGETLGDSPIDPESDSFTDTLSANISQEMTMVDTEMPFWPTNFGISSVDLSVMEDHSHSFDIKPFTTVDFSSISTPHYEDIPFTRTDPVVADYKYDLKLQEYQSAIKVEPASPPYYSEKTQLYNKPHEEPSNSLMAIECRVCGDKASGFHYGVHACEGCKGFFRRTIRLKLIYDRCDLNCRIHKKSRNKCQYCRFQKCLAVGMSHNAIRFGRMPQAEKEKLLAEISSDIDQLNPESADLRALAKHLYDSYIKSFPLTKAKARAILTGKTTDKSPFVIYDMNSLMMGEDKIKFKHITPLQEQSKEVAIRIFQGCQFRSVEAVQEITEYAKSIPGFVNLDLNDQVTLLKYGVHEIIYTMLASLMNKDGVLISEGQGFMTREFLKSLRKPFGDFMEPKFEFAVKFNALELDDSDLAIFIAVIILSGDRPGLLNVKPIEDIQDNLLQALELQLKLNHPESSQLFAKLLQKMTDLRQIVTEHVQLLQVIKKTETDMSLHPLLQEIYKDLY", "conditions": "cited from earlier work"}, "PGC-1α promoter": {"system": "PGC-1α promoter", "test": "PGC-1α promoter activity with PARIS WT or PARIS C631S mutant", "format": "cell-based", "conditions": "PARIS WT; not observed with PARIS C631S mutant"}, "[2]": {"system": "AAV-PARIS injected C57BL/6J mice", "format": "in vivo"}, "PPARα and PPARγ [3]": {"system": "PPARα and PPARγ", "test": "PPARα and PPARγ levels and target gene mRNA in farnesol fed mice", "format": "in vivo"}, "PPARα and PPARγ [4]": {"system": "PPARα and PPARγ", "test": "PPARα and PPARγ levels, target genes and PPAR responsive element in SH-SY5Y cells", "format": "cell-based"}, "PGC-1α and NRF-1": {"system": "PGC-1α and NRF-1", "test": "shRNA knockdown of PARIS in SH-SY5Y cells", "format": "cell-based"}, "[5]": {"conditions": "dietary farnesol in rodents; cited from earlier work"}, "[6]": {"conditions": "farnesol diet from one week prior to injection"}}, "data": [{"smiles": "CC(C)=CCC/C(C)=C/CC/C(C)=C/CO", "note": "[farnesol, (2E,6E)-3,7,11-trimethyldodeca-2,6,10-trien-1-ol]", "values": [{"measurement": "neuroprotective effect in α-syn PFF-injected mice", "setting": "α-syn PFF-injected mice", "value": "requires PARIS farnesylation in vivo"}, {"measurement": "farnesylation of PARIS", "setting": "cPK-KO mice; SN of cPK-KO mice, farnesol diet", "value": "enhanced farnesylation of PARIS"}, {"measurement": "decrements of PGC-1α and NRF-1 levels in the SN", "setting": "cPK-KO mice; cPK-KO mice, farnesol diet", "value": "prevents the decrements of PGC-1α and NRF-1 levels"}, {"measurement": "loss of dopamine neurons in the SN", "setting": "cPK-KO mice; cPK-KO, farnesol diet from 7 days prior to viral injection", "value": "completely and significantly prevents the loss of dopamine neurons"}, {"measurement": "PGC-1α and NRF-1 levels in the SN of control mice", "setting": "cPK-KO mice; control mice, farnesol diet", "value": "increases PGC-1α and NRF-1 levels"}, {"measurement": "mRNA of PGC-1α, NRF-1, SOD2, TFAM, UCP2, CytC, COX II and COX 1 in the SN", "setting": "cPK-KO mice; farnesol-fed versus normal chow-fed mice", "value": "upregulation"}, {"measurement": "increase of farnesol level in the brain versus control diet fed mice", "setting": "[1]; 7 days", "value": 37, "unit": "%"}, {"measurement": "concentration at 7 days", "setting": "[1]; brain", "value": 155, "unit": "ng/g"}, {"measurement": "concentration at 7 days", "setting": "[1]; plasma, non-detectable on control diet", "value": 113, "unit": "ng/mL"}, {"measurement": "activation of PPARγ in vitro", "setting": "PPARγ", "value": "capable of activating"}, {"measurement": "PGC-1α promoter activity", "setting": "PGC-1α promoter", "value": "increase of PGC-1α promoter activity"}, {"measurement": "levels of PARIS WT or PARIS C631S", "setting": "[2]; AAV injected mice, farnesol diet", "value": "did not affect"}, {"measurement": "amphetamine-induced rotation behavior", "setting": "[2]; AAV-PARIS WT, farnesol diet", "value": "restoration of amphetamine-induced rotation behavior"}, {"measurement": "dopamine neuronal survival, AAV-PARIS C631S mice", "setting": "[2]; [6]", "value": "no effect"}, {"measurement": "loss of dopamine neurons, AAV-PARIS WT mice", "setting": "[2]; [6]", "value": "completely prevents the loss of dopamine neurons"}, {"measurement": "farnesylated PARIS in AAV-PARIS WT compared to AAV-PARIS C631S injected mice", "setting": "[2]; farnesol fed mice, two weeks post-AAV injection", "value": "robustly observed"}, {"measurement": "mRNA levels of MCAD", "setting": "PPARα and PPARγ [3]; SN of farnesol fed mice", "value": "increases"}, {"measurement": "mRNA levels of PPARγ and ACOX1", "setting": "PPARα and PPARγ [3]; SN of farnesol fed mice", "value": "decreases"}, {"measurement": "PGC-1α and NRF-1 levels", "setting": "PPARα and PPARγ [3]; farnesol fed mice", "value": "increase"}, {"measurement": "levels of PPARα and PPARγ", "setting": "PPARα and PPARγ [3]; farnesol fed mice", "value": "no alteration"}, {"measurement": "activation of a PPAR responsive element", "setting": "PPARα and PPARγ [4]", "value": "fails to activate"}, {"measurement": "levels of PPARα and PPARγ protein and mRNA and target genes ACOX1, CPT-1A, MCAD, LCAD", "setting": "PPARα and PPARγ [4]", "value": "fails to influence"}, {"measurement": "PGC-1α and NRF-1 levels after knockdown of PARIS", "setting": "PGC-1α and NRF-1", "value": "fails to enhance the levels further"}, {"measurement": "cardioprotective effects", "setting": "[5]", "value": "exhibits cardioprotective effects"}]}]}
